In patent US20230075368A1, “IDENTIFICATION OF AN EGFR-BIN3 PATHWAY THAT ACTIVELY SUPPRESSES INVASION AND REDUCES TUMOR SIZE IN GLIOBLASTOMA” (The United States Govemment as represented by the …, priority 2020, published 2023):

Columns and labels:
betacellulin = assay: ELISA for BTC in supernatants; assay type: cell-based, human; settings: tofacitinib 1 μM, 72 hours; GBM12 and GBM6
Experimental: Similar experiments were performed in GBM6 (FIG. 20D). […] Similar experiments were performed in GBM6 (FIG. 20F). […] The Western blot images are representative of three independent biological replicates. Actin served as loading control. Data are represented as mean±SEM from three independent experiments. * P<0.05, **P<0.01, *[…], unpaired two-tailed t-test.

EMP1 = assay: Western blot of EMP1; assay type: cell-based, human; settings: EGF 50 ng/ml, 24 hours; GBM12 and GBM6
Experimental: Whole protein extracts from cells or tumor tissues were analyzed by western blot as previously described (Altieri et al. (2015) Surg. Technol. Int 27: 297-302). Mayo PDX cells were serum starved overnight. Following treatment for specific time, cells were harvested and lysed. The human glioblastoma tissues were ground in liquid nitrogen and then were lysed. EGFR (06-847) antibody was from Millipore. DOCK7 was from Proteintech (Rosemont, Ill.). pEGFR (2236), STAT3 (12640), pSTAT3 (9145), cdc42(4376), and RhoA (4695) antibodies were from Cell Signaling Technology (Danvers, Mass.). TGFα antibody was from R&D system. BIN3 (sc-514396) and (3-Actin (sc-47778) were from Santa Cruz Biotechnology (Dallas, Tex.).
Referring to FIG. 23A-P, EGFR induced EMP1 overexpression drives invasion and is mediated by Nanog. Specifically, cells were transiently transfected with empty or EGFRwt or EGFRvIII vector for 48 hours, and subjected to Western blot analysis for EGFR, pEGFR, BIN3 and EMP1 (FIG. 23A). Similar experiments were performed in GBM14 (FIG. 23B). […] Similar experiments were performed in GBM14 (FIG. 23E). Efficiency of EMP1 knockdown and EGFR overexpression was confirmed by Western blot analysis (FIG. 23F and FIG. 23G). […] FIG. 23J and FIG. 23K show EMP1 mRNA levels in EGFR and EGFRvIII overexpressing GBM12 and GBM14, measured by RT-PCR. […]

[1] = system: GBM12 mouse intracranial tumors; assay: Exogenous EGF infusion into GBM12 intracranial tumors; assay type: in vivo, mice; settings: EGF infused into lateral ventricles by miniosmotic pump
Experimental: 4 to 6 weeks old female athymic nude mice were purchased from Charles River Laboratories. Mayo PDXs were injected into the right corpus striatum of the brains of 6-8 week-old nude mice using a stereotactic frame. […] Kaplan-Maier survival curves were calculated using GraphPad Prism 7.0 software. Alzet Osmotic pumps were installed for brain delivery of EGF or vehicle in tumor bearing mice. To monitor the mice with orthotropic xenografts, MRI was performed at the Mouse MRI Core, Advanced Imaging Research Center, at UT Southwestern.
Next, the impact of EGFR ligand on GBM invasion was examined in an orthotopic mouse model. To induce ligand activation of EGFR in vivo, ligand to EGFR-expressing tumors were provided by generating an autocrine loop or by exogenous infusion of ligand. In the autocrine loop experiment, ligand for EGFRwt is provided by the same cells that express the EGFR. Autocrine loops involving EGFR and its ligands are well described in GBM (Ramnarain et al. (2006) Cancer Res. 66: 867-874; Tang et al. (1997) J. Neurooncol. 35: 303-314). […]
Western blot analysis of TGFα, pEGFR, EGFR, and BIN3 in PDXs stably transfected with empty (GBM12V, GBM6V, GBM22V) or TGFα expressing vector (GBM12TGFα, GBM6TGFα, GBM22TGFα) is shown in FIG. 12A. […] Quantitative analysis of HNA positive cells in mouse tumor tissue sections. […]

DOCK7 = assay: GEF activity of DOCK7 (Cdc42 G15A agarose pull down); assay type: cell-based, human; settings: EGF, 24 hours; GBM12 and GBM6
Experimental: To measure GEF activity of DOCK7, cell lysates were incubated with 40 μl Cdc42 G15A agarose beads (ab211185, Abcam) at 4° C. for 1 hour. The agarose beads were then washed boiled and the supernatants were used to immunoblot with DOCK7 antibody to determine levels of active DOCK7.

## C[C@@H]1CCN(C(=O)CC#N)C[C@@H]1N(C)c1ncnc2[nH]ccc12 [tofacitinib]
betacellulin
  upregulation of betacellulin: not found

## EGF: Recombinant human EGF (AF-100) from Peprotech; EGFR ligand
EMP1
  EMP1 level: does not affect EMP1 level
[1]
  tumor size (MRI): smaller tumors
[1]; H&E, SMI-31, HNA staining
  tumor invasiveness: noninvasive
DOCK7
  DOCK7 activity: decreased activity
